Laboratory results reported in PubChem BioAssay AID256 (DTP/NCI, 2004).
Several values for one entry are separate records, joined by “and”; a condition that tells them apart may be missing. Equal entries are not always repeated. Toxic doses and inconclusive results are not listed.

System: CD2F1 mice, L1210 leukemia ip, survival T/C
Test: NCI In Vivo Anticancer Drug Screen. Data for tumor model L1210 Leukemia (intraperitoneal) in CD2F1 (CDF1) mice
Conditions: higher = longer survival
Method in brief: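 In this screen, transplantable tumors were grown in mice given either the compound or its vehicle. Results were expressed as the treated measurement relative to the control measurement.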

[1] = endpoint: mean survival time, dose: 2.5 mg/kg/injection, schedule: Q01DX009 (ip), vehicle: saline with Tween-80
[2] = endpoint: mean survival time, dose: 5.0 mg/kg/injection, schedule: Q01DX009 (ip), vehicle: saline with Tween-80
[3] = endpoint: mean survival time, dose: 10.0 mg/kg/injection, schedule: Q01DX009 (ip), vehicle: saline with Tween-80
[4] = endpoint: mean survival time, dose: 20.0 mg/kg/injection, schedule: Q01DX009 (ip), vehicle: saline with Tween-80
[5] = endpoint: mean survival time, dose: 40.0 mg/kg/injection, schedule: Q01DX009 (ip), vehicle: saline with Tween-80
[6] = endpoint: mean survival time, dose: 80.0 mg/kg/injection, schedule: Q01DX009 (ip), vehicle: saline with Tween-80
[7] = endpoint: mean survival time, dose: 100.0 mg/kg/injection, schedule: Q01DX009 (ip), vehicle: saline with Tween-80
[8] = endpoint: mean survival time, dose: 200.0 mg/kg/injection, schedule: Q01DX009 (ip), vehicle: saline with Tween-80
[9] = endpoint: mean survival time, dose: 400.0 mg/kg/injection, schedule: Q01DX009 (ip), vehicle: saline with Tween-80
[10] = endpoint: mean survival time, dose: 50.0 mg/kg/injection, schedule: Q01DX009 (ip), vehicle: saline with Tween-80
[11] = endpoint: mean survival time, dose: 50.0 mg/kg/injection, schedule: Q01DX009 (ip), vehicle: Klucel (hydroxypropylcellulose) (HPC)
[12] = endpoint: mean survival time, dose: 100.0 mg/kg/injection, schedule: Q01DX009 (ip), vehicle: Klucel (hydroxypropylcellulose) (HPC)
[13] = endpoint: mean survival time, dose: 200.0 mg/kg/injection, schedule: Q01DX009 (ip), vehicle: Klucel (hydroxypropylcellulose) (HPC)
[14] = endpoint: mean survival time, dose: 100.0 mg/kg/injection, schedule: Q04DX003 (ip), vehicle: saline with Tween-80
[15] = endpoint: mean survival time, dose: 200.0 mg/kg/injection, schedule: Q04DX003 (ip), vehicle: saline with Tween-80
[16] = endpoint: mean survival time, dose: 400.0 mg/kg/injection, schedule: Q04DX003 (ip), vehicle: saline with Tween-80

CN(C)c1ccn(C2OC(CO)C(O)C2O)c(=O)n1 (centres undefined)
T/C (endpoint: mean survival time, dose: 100.0 mg/kg/injection, schedule: Q01DX005 (ip), vehicle: water): 107 % of control
T/C (endpoint: mean survival time, dose: 200.0 mg/kg/injection, schedule: Q01DX005 (ip), vehicle: water): 103 % of control
T/C (endpoint: mean survival time, dose: 400.0 mg/kg/injection, schedule: Q01DX005 (ip), vehicle: water): 115 % of control

C/C(=C/c1ccccc1)C(O)C(=O)O (centres undefined)
T/C (endpoint: mean survival time, dose: 50.0 mg/kg/injection, schedule: Q04DX003 (ip), vehicle: Klucel (hydroxypropylcellulose) (HPC)): 100 % of control
T/C (endpoint: mean survival time, dose: 200.0 mg/kg/injection, schedule: Q04DX003 (ip), vehicle: Klucel (hydroxypropylcellulose) (HPC)): 100 % of control

O=P1(N(CCCl)CCCl)NCCCO1.[Cl][Sb]([Cl])[Cl] (centres undefined)
T/C (endpoint: mean survival time, dose: 31.25 mg/kg/injection, schedule: Q01DX001 (ip), vehicle: olive oil, sesame oil, peanut oil): 109 % of control
T/C (endpoint: mean survival time, dose: 62.5 mg/kg/injection, schedule: Q01DX001 (ip), vehicle: olive oil, sesame oil, peanut oil): 113 % of control
T/C (endpoint: mean survival time, dose: 125.0 mg/kg/injection, schedule: Q01DX001 (ip), vehicle: olive oil, sesame oil, peanut oil): 109 % of control

CCOC(=O)Nc1ccccc1[N+](=O)[O-]
T/C (endpoint: mean survival time, dose: 100.0 mg/kg/injection, schedule: Q04DX003 (ip), vehicle: other): 98 % of control
T/C (endpoint: mean survival time, dose: 200.0 mg/kg/injection, schedule: Q04DX003 (ip), vehicle: other): 102 % of control
T/C (endpoint: mean survival time, dose: 400.0 mg/kg/injection, schedule: Q04DX003 (ip), vehicle: other): 98 % of control

CN1CCN(c2ccc([N+](=O)[O-])c3no[n+]([O-])c23)CC1
T/C [1]: 105 % of control and 112 % of control
T/C [2]: 114 % of control and 108 % of control
T/C (endpoint: mean survival time, dose: 5.0 mg/kg/injection, schedule: Q01DX009 (ip), vehicle: saline): 123 % of control
T/C [3]: 116 % of control and 110 % of control
T/C [4]: 117 % of control and 119 % of control
T/C [5]: 122 % of control and 103 % of control
T/C [6]: 121 % of control

O=NN(CCCl)C(=O)NCCc1cccc[n+]1[O-]
T/C (endpoint: mean survival time, dose: 1.56 mg/kg/injection, schedule: Q01DX001 (ip), vehicle: water): 108 % of control
T/C (endpoint: mean survival time, dose: 3.13 mg/kg/injection, schedule: Q01DX001 (ip), vehicle: water): 116 % of control
T/C (endpoint: mean survival time, dose: 6.25 mg/kg/injection, schedule: Q01DX001 (ip), vehicle: water): 121 % of control
T/C (endpoint: mean survival time, dose: 25.0 mg/kg/injection, schedule: Q01DX001 (ip), vehicle: water): 173 % of control
T/C (endpoint: mean survival time, dose: 50.0 mg/kg/injection, schedule: Q01DX001 (ip), vehicle: water): 309 % of control
T/C (endpoint: mean survival time, dose: 100.0 mg/kg/injection, schedule: Q01DX001 (ip), vehicle: water): 240 % of control

CN(CC(=O)O)C(=N)N
T/C (endpoint: mean survival time, dose: 250.0 mg/kg/injection, schedule: Q01DX Z (ip), vehicle: saline): 96 % of control
T/C (endpoint: mean survival time, dose: 500.0 mg/kg/injection, schedule: Q01DX Z (ip), vehicle: saline): 96 % of control
T/C (endpoint: mean survival time, dose: 1000.0 mg/kg/injection, schedule: Q01DX Z (ip), vehicle: saline): 100 % of control

CCOC(=O)Nc1ccccc1F
T/C [7]: 98 % of control
T/C [8]: 107 % of control
T/C [9]: 95 % of control

OCCNc1c(Cl)ccc(Cl)c1Cl
T/C [10]: 107 % of control
T/C [7]: 103 % of control
T/C [8]: 98 % of control

O=C(O)CSCc1ccc(Cl)cc1Cl
T/C [11]: 98 % of control
T/C [12]: 87 % of control
T/C [13]: 93 % of control

S=C(NCCSC(=S)Nc1ccccc1)Nc1ccccc1
T/C [7]: 91 % of control
T/C [8]: 89 % of control
T/C [9]: 106 % of control

C[CH2][Sn]([I])([CH2]C)[CH2]C
T/C (endpoint: mean survival time, dose: 6.25 mg/kg/injection, schedule: Q01DX009 (ip), vehicle: saline with Tween-80): 89 % of control

CCOC(=O)c1c[nH]c2oc(/C=N/N3CC(CN4CCOCC4)OC3=O)cc2c1=O (centres undefined)
T/C (endpoint: mean survival time, dose: 12.5 mg/kg/injection, schedule: Q01DX009 (ip), vehicle: saline): 97 % of control and 109 % of control
T/C (endpoint: mean survival time, dose: 25.0 mg/kg/injection, schedule: Q01DX009 (ip), vehicle: other): 102 % of control
T/C (endpoint: mean survival time, dose: 25.0 mg/kg/injection, schedule: Q01DX009 (ip), vehicle: saline with Tween-80): 107 % of control
T/C (endpoint: mean survival time, dose: 25.0 mg/kg/injection, schedule: Q01DX009 (ip), vehicle: saline): 97 % of control and 103 % of control
T/C (endpoint: mean survival time, dose: 50.0 mg/kg/injection, schedule: Q01DX009 (ip), vehicle: other): 110 % of control
T/C [10]: 109 % of control
T/C (endpoint: mean survival time, dose: 50.0 mg/kg/injection, schedule: Q01DX009 (ip), vehicle: saline): 114 % of control and 101 % of control
T/C [7]: 124 % of control
T/C (endpoint: mean survival time, dose: 200.0 mg/kg/injection, schedule: Q01DX009 (ip), vehicle: other): 160 % of control
T/C (endpoint: mean survival time, dose: 200.0 mg/kg/injection, schedule: Q01DX009 (ip), vehicle: saline): 158 % of control
T/C (endpoint: mean survival time, dose: 400.0 mg/kg/injection, schedule: Q01DX009 (ip), vehicle: other): 96 % of control
T/C [9]: 152 % of control
T/C (endpoint: mean survival time, dose: 400.0 mg/kg/injection, schedule: Q01DX009 (ip), vehicle: saline): 124 % of control and 100 % of control
T/C (endpoint: median survival time, dose: 50.0 mg/kg/injection, schedule: Q01DX005 (ip), vehicle: other): 112 % of control
T/C (endpoint: median survival time, dose: 50.0 mg/kg/injection, schedule: Q01DX009 (ip), vehicle: acid diluted with saline): 115 % of control and 101 % of control
T/C (endpoint: median survival time, dose: 100.0 mg/kg/injection, schedule: Q01DX005 (ip), vehicle: other): 118 % of control
T/C (endpoint: median survival time, dose: 100.0 mg/kg/injection, schedule: Q01DX009 (ip), vehicle: acid diluted with saline): 124 % of control
T/C (endpoint: median survival time, dose: 400.0 mg/kg/injection, schedule: Q01DX005 (ip), vehicle: other): 190 % of control
T/C (endpoint: median survival time, dose: 400.0 mg/kg/injection, schedule: Q01DX009 (ip), vehicle: acid diluted with saline): 90 % of control

CC1(c2ccccc2)OCCO1
T/C (endpoint: mean survival time, dose: 100.0 mg/kg/injection, schedule: Q01DX001 (ip), vehicle: saline with Tween-80): 97 % of control
T/C [7]: 95 % of control
T/C [14]: 100 % of control
T/C (endpoint: mean survival time, dose: 200.0 mg/kg/injection, schedule: Q01DX001 (ip), vehicle: saline with Tween-80): 94 % of control
T/C [8]: 93 % of control
T/C [15]: 100 % of control
T/C (endpoint: mean survival time, dose: 400.0 mg/kg/injection, schedule: Q01DX001 (ip), vehicle: saline with Tween-80): 97 % of control
T/C [9]: 97 % of control
T/C [16]: 97 % of control

CCc1ccccc1NC(=O)c1cccc(Cl)c1
T/C [7]: 98 % of control
T/C [14]: 94 % of control
T/C [8]: 91 % of control
T/C [15]: 96 % of control
T/C [9]: 96 % of control
T/C [16]: 96 % of control

O=C(O)C1CC2C=CC1C2 (centres undefined)
T/C [7]: 94 % of control
T/C [14]: 96 % of control
T/C [8]: 91 % of control
T/C [15]: 96 % of control
T/C [9]: 94 % of control
T/C [16]: 94 % of control

Cc1cccc(NC(=O)COc2cc(Cl)c(Cl)cc2Cl)c1
T/C (endpoint: mean survival time, dose: 100.0 mg/kg/injection, schedule: Q04DX002 (ip), vehicle: saline with Tween-80): 98 % of control
T/C (endpoint: mean survival time, dose: 200.0 mg/kg/injection, schedule: Q04DX002 (ip), vehicle: saline with Tween-80): 98 % of control
T/C (endpoint: mean survival time, dose: 400.0 mg/kg/injection, schedule: Q04DX002 (ip), vehicle: saline with Tween-80): 94 % of control

[Cl][Pt+2][Cl].[NH-]c1cc2ccccc2cc1[NH-]
T/C [1]: 102 % of control
T/C [2]: 109 % of control
T/C [3]: 109 % of control
T/C [4]: 100 % of control and 112 % of control
T/C [5]: 105 % of control and 111 % of control
T/C [6]: 105 % of control
T/C (endpoint: mean survival time, dose: 160.0 mg/kg/injection, schedule: Q01DX009 (ip), vehicle: saline with Tween-80): 106 % of control
T/C (endpoint: mean survival time, dose: 320.0 mg/kg/injection, schedule: Q01DX009 (ip), vehicle: saline with Tween-80): 111 % of control

CC1(CCCc2ccc(N(CCCl)CCCl)cc2)NC(=O)NC1=O (centres undefined)
T/C [11]: 114 % of control
T/C [12]: 93 % of control
T/C [13]: 86 % of control
